Experimental data published in patent US11845759B2, “Opioid compounds and uses thereof” (priority 2018, dated 2023).

Columns and labels:
[1] = Hydrolysis in simulated intestinal fluid at 37° C.; conditions: mixture in simulated intestinal fluid (37° C., pH 6.8, pancreatine)
[2] = Hydrolysis in human blood serum at 37° C.; conditions: human blood serum (37° C.)
μ-opioid receptor = μ-opioid receptor (Homo sapiens (Human), UniProt P35372); experiment: [35S]GTPγS μ-opioid receptor functional assay; assay type: biochemical; conditions: for functional profile at μ-opioid receptor (in words): conclusion from Table 23

COc1ccc2c3c1OC1C(OC(C)=O)=CC[C@@]4(OC(C)=O)[C@@H](C2)N(C)CC[C@]314 (stereo partly drawn) [6,14-Diacetyl oxycodone, 6,14-bis-acetyl Oxycodone]
hydrolysis products (in words) [1]: hydrolyzes to create additional 6-acetyl oxycodone and 14-acetyl oxycodone

COc1ccc2c3c1OC1C(OC(C)=O)=CCC4[C@@H](C2)N(C)CC[C@]314 (stereo partly drawn) [6-acetyl hydrocodone]
hydrolysis in human blood serum (in words) [2]: hydrolyzed quickly | % hydrolyzed to hydrocodone ([2]; 30 minutes): 99% | % hydrolyzed to hydrocodone ([2]; five minutes): 70%

COc1ccc2c3c1OC1C(=O)CCC4(OC(C)=O)C(C2)N(C)CCC314 (stereo not drawn) [14-acetyl oxycodone]
% Response Agonist (μ-opioid receptor; Conc. 3 μM, criteria ≥± 50%): 79% | functional profile at μ-opioid receptor (in words) (μ-opioid receptor): μ-receptor agonist as effective as oxycodone

CCCCCCCCCCCC(=O)O[C@@]12CCC(=O)C3Oc4c(OC)ccc5c4[C@@]31CCN(C)[C@@H]2C5 (stereo partly drawn) [14-lauroyl oxycodone]
% Response Agonist (μ-opioid receptor; Conc. 100 μM, criteria ≥± 50%): 56% | % Response Antagonist (μ-opioid receptor; Conc. 100 μM, criteria ≥± 50%): 56% | functional profile at μ-opioid receptor (in words) (μ-opioid receptor): partial agonist and a partial antagonist
